Data reported in patent publication US5227385A, “Method for treatment of neurodegenerative diseases” (priority 1992, dated 1993).

Experiments:
[1] = tested on: synaptosomes from the striatal area of rat brain (dopamine release); experiment: [3H]-dopamine release from striatal synaptosomes of rat brain; type: cell-based, rat (Sprague-Dawley); conditions: evaluated as described in Example 1
Protocol: Dopamine release was measured by preparing synaptosomes from the striatal area of rat brain generally obtained from Sprague-Dawley rats according to the procedures set forth by Nagy, et al., J. Neurochem., Vol. 43, pp. 1114-1123 (1984). Striata from 4 rats were homogenized in 2 ml of 0.32M sucrose buffered with 5 mM HEPES (pH 7.5), using a glass-teflon tissue grinder. The homogenate was diluted to 5 ml with additional homogenization solution and centrifuged at 1000×g for 10 min. This procedure was repeated on the new pellet and the resulting supernatant was centrifuged at 12,000×g for 20 min. […] Using this method, 30 to 90 percent of the dopamine was taken up into the synaptosomes, as determined by scintillation counting following filtration through glass fiber filters soaked with 0.5 percent polyethyleneimine. […] After the addition of a 0.2 ml of a 20 μM solution of ligand, the perfusate was collected into scintillation vials at 1 min. intervals and the dopamine released was quantified by scintillation counting. Peaks of radioactivity released above background were summed and the average basal release during that time was subtracted from the total. Release was expressed as a percentage of release obtained with an equal concentration of (S)-(-)-nicotine.

[2] = molecular target: nicotinic cholinergic receptors; experiment: Inhibition of L-[3H]nicotine binding to mouse brain membranes; parameters: species or system mouse (DBA strain); conditions: racemic mixture of ligand, 10 nM L-[3H]nicotine, 2 hr, 4° C.
Protocol: Mice (DBA strain) were maintained on a 12 hour light/dark cycle and were allowed free access to water and food supplied by Wayne Lab Blox, Madison, Wis. Animals used in the present studies were 60 to 90 days of age and weighed 20 to 25 g. Brain membrane preparations were obtained from pooled brain tissue of both males and females.
Mice were killed by cervical dislocation. Brains were removed and placed on an ice-cold platform. […] Protein was determined by the method of Lowry, et al., J. Biol. Chem., Vol. 193, pp. 265-275 (1951), using bovine serum albumin as the standard.
The binding of L-[^3 H]nicotine was measured using a modification of the method of Romano, et al., Science, Vol. 210, pp. 647-650 (1980) as described previously by Marks, et al., Mol. Pharmacol., Vol. 30, pp. 427-436 (1986). The binding of L-[^3 H]nicotine was measured using a 2 hr. incubation at 4° C. […] Nonspecific binding was determined by inclusion of 10 μM nonradioactive nicotine in the incubations. The inhibition of L-[^3 H]nicotine binding by test compounds was determined by including one of eight different concentrations of the test compound in the incubation. […] Inhibition constants (Ki values) were calculated from the IC50 values using the method of Cheng, et al., Biochem. Pharmacol., Vol. 22, pp. 3099-3108 (1973). […]

[3] = tested on: nicotinic cholinergic receptors; conditions: chronic administration to animals; cited from earlier work
[4] = tested on: acetylcholine release in brain tissue; conditions: direct action; cited from earlier work
[5] = in vivo; cited from earlier work
[6] = tested on: nicotinic cholinergic receptors; conditions: acute administration; cited from earlier work

Structure (SMILES): CC(=O)C1=C(C)CC2CCC1N2 (stereo not drawn) [Example 2, 2-acetyl-3-methyl-8-azabicyclo[3.2.1]oct-2-ene]
- dopamine release (in words) [1]: found to provide dopamine release

Structure (SMILES): CC(=O)C1=C(C)CC2CCC1N2C (stereo not drawn) [Example 3, 2-acetyl-3,8-dimethyl-8-azabicyclo[3.2.1]oct-2-ene]
- dopamine release (in words) [1]: found to provide dopamine release

Structure (SMILES): CC(=O)C1=CCC2CCC1N2C (stereo not drawn) [Ferruginine, ferruginine]
- Ki [2]: 3100 ± 500 nM

Structure (SMILES): CC(=O)C1=CCC2CCC1N2 (stereo not drawn) [Norferruginine, norferruginine]
- Ki [2]: 1100 ± 300 nM

Structure (SMILES): CN1CCCC1c1cccnc1 (stereo not drawn) [nicotine]
- number of nicotinic cholinergic receptors [3]: elicit an increase in the number of such receptors
- release of acetylcholine in brain tissue [4]: elicit the release of acetylcholine in brain tissue
- attention [5]: enhance attention
- cognitive functions [5]: improve cognitive functions
- activation of nicotinic cholinergic receptors [6]: suggested to possess an ability to activate nicotinic cholinergic receptors
